Converted amounts (≈) assume the structure as drawn. “And” between values parts separate entries of the source, which are not always exact repeats. Equal values may be shown once. “Also recorded” adds a separate entry of the source. Where a name gives a salt, the structure may show the parent alone. Read-outs that look alike come from different tables or passages of the source.
How the values were obtained:
[1] = Local concentration of penicillin in saliva after a troche containing 50 mg penicillin G; assay type: in vivo, human; details: assuming troche is dissolved in 0.1 ml of saliva
Method: The local concentration of penicillin in the saliva was determined as follows. […] This loculated pocket of saliva was not swallowed and was not to be diluted with excess saliva from other parts of the mouth for one hour. Two samples were taken for assay to determine the peak and trough local concentrations of penicillin during the one-hour duration of medicinal treatment. At the time when the troche was completely dissolved and one hour later, aliquots of 10 microliters were pipetted from this pocket of saliva solution at the site of medication, representing the peak level and the trough level of antibiotic concentration, and transferred into 10 ml of distilled water to make a 1:1.000 dilution and into 1 ml of distilled water to make a 1:100 dilution, respectively. The diluted saliva antibiotic solutions were passed through a sterile bacteria-filter to remove any bacterial or fungal contaminants of the oral flora.
For determination of the peak concentration, 1 ml of the bacteria-free filtrate was further diluted with 9 ml of nutrient broth to achieve a 1:10,000 dilution of the saliva. Then a serial two-fold dilution was made of this 1:10,000 diluted saliva sample with an equal volume of nutrient broth in a roll of test tubes to obtain a series of 1 ml aliquots of nutrient broth in which the saliva was diluted to 20,000, 40,000, 80,000, 160,000, 320,000, 640,000, 1,280,000 and 2,560,000 folds respectively. […] Thus the final dilutions of the saliva sample were in the range of 40,000 to 5,120,000 folds.
For determining the trough concentration, the entire 1 ml of the 1:100 diluted saliva filtrate was used to make the serial dilutions so that the final dilutions of saliva sample were in the range of 4,000 to 256,000 folds in the final test culture.
As control standards, a series of test tubes containing 1 ml of nutrient broth with varying concentrations of penicillin G potassium salt ranging from 0.1 units to 10 units/ml were similarly mixed with an equal volume of nutrient broth freshly inoculated with the standard tubes of Staphylococcus aureus. Both the test and control standard tubes were incubated at 37° C. for 18 hours. Among the test tubes showing no gross evidence of bacterial growth, the one containing the highest dilution of saliva and the one containing the least amount of penicillin G were considered as having the identical concentration of penicillin, i.e. the MIC of the staphylococcus aureus.

[2] = Local concentration of oxytetracycline hydrochloride in saliva after a 50 mg troche; details: for peak concentration locally at the site of the ulcer: assuming troche is dissolved in 0.1 ml of saliva
Text: The final concentrations of oxytetracycline in the control standard nutrient broth were 0.25 mcg/ml, 0.5 mcg/ml, 1.0 mcg/ml, 2.0 mcg/ml, 4.0 mcg/ml, and 8.0 mcg/ml. The final dilutions of saliva sample were 1/50,000, 1/100,000, 1/200,000, 1/400,000, 1/800,000 and 1/1,600,000 for the peak concentration test tubes and 1/4,000. 1/8,000, 1/16,000 and 1/32,000 for the trough concentration test tubes. The Staphylococcus aureus (ATCC 29213) was also used as the standard test microorganism.

[3] = tested on: human salivary microbial flora; assay: Minimal total inhibition concentration of ciprofloxacin for human salivary microbial flora (Example XI); assay type: cell-based; details: 1 h, aerobic blood agar
Method: (§1) Source of human salivary flora: undiluted saliva freshly collected from the mouth of a healthy adult who had refrained from fluid or food intake for three hours after breakfast prior to saliva collection.
Antibacterial agent: Cipro (a member of the quinolone group) I.V. 200 mg in 20 ml (1%) for intravenous infusion. […] Division Bayer Corporation. Procedure:
1) An aliquot of 1 ml of the Cipro solution, 1%, was added to 1.5 ml to make a total volume of 2.5 ml, equivalent to a 4 mg/ml concentration of the antibacterial agent in saliva.
2) An aliquot of 0.2 ml of the 4 mg/ml Cipro salivary solution was pipetted out for serial double dilutions in saliva in test tubes to the final concentrations of 4, 2, 1, 0.5, 0.25 and 0.12 mg of Cipro per ml, respectively.
3) All tubes containing saliva with different concentrations of Cipro were incubated in 37 degrees Celsius for one hour.
4) At the end of the one-hour incubation, 0.1 ml of the salivary Cipro solution was pipetted from each test tube and inoculated on the surface of a blood agar plate. An aliquot of 0.1 ml saliva sample containing no Cipro was spread on the surface of a blood agar plate as control.
(§2) 5) After 18 hours of incubation in 37 degrees Celsius aerobically, the growth on the blood agar plates was inspected and compared for the presence or absence of bacterial colonies.

[4] = tested on: human salivary microbial flora; assay: Minimal total inhibition concentration of tetracyclines for human salivary microbial flora (Example X); assay type: cell-based; details: for bacterial growth from treated saliva: 1 h, aerobic blood agar
Method: as §1
Antibacterial agent: Doxycycline cyclate (a tetracycline) for injection USP, equivalent to 100 mg Doxycycline (Fugusawa USA, Inc., Deerfield, IL 60015-2548. Procedure:
1) An adequate amount of saliva was added to the vial of doxycycline to make a total volume of suspension of 3.1 ml, equivalent to a 32 mg/ml concentration of the antibacterial agent.
2) An aliquot of 0.2 ml of the 32 mg/ml doxycycline salivary solution was pipetted out for serial double dilutions in saliva in test tubes to the final concentrations of 32, 16, 8, 4, 2, 1, 0.5, 0.25 and 0.12 mg of doxycycline per ml.
3) All tubes containing saliva with different concentrations of doxycycline were incubated in 37 degrees Celsius for one hour.
4) At the end of the one-hour incubation, 0.1 ml of the salivary doxycycline solution was pipetted from each test tube and inoculated on the surface of a blood agar plate. An aliquot of 0.1 ml saliva sample containing no antibacterial agent was spread on the surface of a blood agar plate as control.
as §2

[5] = Topical dry dosage treatment of minor aphthous ulcers, gingivitis and periodontal infections; assay type: in vivo, human; details: 50 mg dry dosage form, four times a day
Text: The administration of the medicament depends upon the type of infection to be treated and the type and dosage of the antibacterial agent used. The appropriate antibacterial agent, dosage and treatment regimen can readily be determined by someone having ordinary skill in this art. […] Thorough tooth cleaning is advised prior to introduction of the medicament to an infected area.

[6] = cited from earlier work
[7] = cited from earlier work; remark: listed apart in the source

Q: What does the source list for `CCCCCCCCCCCCCCCCCC(=O)O` [magnesium stearate]?
A: initial concentration at the ulcer [1]: 10 mg/mL; peak concentration locally at the site of the ulcer [2]: 10 mg/mL

Q: What does the source list for `O=C(O)c1cn(C2CC2)c2cc(N3CCNCC3)c(F)cc2c1=O` [ciprofloxacin]?
A: bacterial growth from treated saliva ([3]; 0.5 mg/ml): A few surviving or uninhibited bacteria grew into colonies; bacterial growth from treated saliva ([3]; 0.5, 0.25 and 0.12 mg/ml): Varying numbers of bacterial colonies were observed; bacterial growth from treated saliva ([3]; 1, 2 and 4 mg/ml): either destroyed or totally inhibited; bacterial growth from treated saliva ([3]; 1, 2 and 4 mg/ml, listed as Cipro): No bacterial colonies were observed

Q: With `C[C@H]1c2cccc(O)c2C(O)=C2C(=O)[C@]3(O)C(O)=C(C(N)=O)C(=O)[C@@H](N(C)C)[C@@H]3[C@@H](O)[C@@H]21` [doxycycline hyclate] as the compound, how does the “bacterial growth from treated saliva” value ([4]; 0.5 mg/ml) read?
A: A few surviving or uninhibited bacteria grew into colonies

Q: What about the “bacterial growth from treated saliva” value ([4]; 0.5, 0.25 and 0.12 mg/ml) of the same compound?
A: Varying numbers of bacterial colonies were observed

Q: And the “bacterial growth from treated saliva” value ([4]; 1, 2, 4, 8, 16, 32 mg/ml)?
A: No bacterial colonies were observed; also recorded: either destroyed or totally inhibited

Q: And the MIC ([4]; read-out: minimal total inhibition concentration, human salivary microbial flora)?
A: ~1000 µg/mL (≈ 2250 µM)

Q: What about the “patients with complete relief of pains within about 48 hours” value [5] of the same compound?
A: over 90%

Q: And the “time to complete relief of pains” value [5]?
A: ≤ 48 h

Q: What about the peak serum level ([6]; intravenous injection of 100 mg) of the same compound?
A: 2.5 µg/mL

Q: What about the peak serum level ([6]; intravenous injection of 200 mg) of the same compound?
A: 2.6 µg/mL

Q: And the peak serum level ([6]; oral 200 mg, fasting adults)?
A: 2.6 to 3 µg/mL

Q: And the peak serum concentration ([6]; oral ingestion of 100, fasting adults)?
A: 1.5 to 2.1 µg/mL

Q: With `CN(C)[C@@H]1C(=O)C(C(N)=O)=C(O)[C@@]2(O)C(=O)C3=C(O)c4c(O)cccc4[C@@](C)(O)[C@H]3[C@H](O)[C@@H]12` [oxytetracycline hydrochloride] as the compound, how does the “trough concentration in saliva” value ([2]; 50 mg oxytetracycline hydrochloride troche, one hour, 60 min, hydrochloride) read?
A: 8 mg/mL

Q: And the “initial peak concentration in saliva” value ([2]; 50 mg oxytetracycline hydrochloride troche, two subjects, hydrochloride)?
A: 800 mg/mL and 400 to 800 mg/mL

Q: What about the “peak concentration locally at the site of the ulcer” value [2] of the same compound?
A: 400 to 800 mg/mL

Q: With `CN(C)[C@@H]1C(=O)C(C(N)=O)=C(O)[C@@]2(O)C(=O)C3=C(O)c4c(O)cccc4[C@@](C)(O)[C@H]3C[C@@H]12` [tetracycline HCL] as the compound, how does the “patients with complete relief of pains within about 48 hours” value [5] read?
A: over 90%

Q: And the “time to complete relief of pains” value [5]?
A: ≤ 48 h

Q: With `O=C1CCC(N2C(=O)c3ccccc3C2=O)C(=O)N1` (centres unmarked) [Thalidomide] as the compound, how does the effectiveness of treatment ([7]; earlier treatments of oral infections / aphthous ulcers) read?
A: effective in some HIV-infected patients

Q: What about the adverse effect ([7]; literature) of the same compound?
A: teratogenic

Source: US6248718A, “Lesion-directed dry dosage forms of antibacterial agents for the treatment of acute mucosal infections of the oral cavity” (priority 1999, dated 2001)
